Experimental data as given in US10167299B2, “1-(3-aminopropyl) substituted cyclic amine compounds, preparation method therefor, and pharmaceutical compositions and uses thereof” (SHANGHAI INSTITUTE OF MATERIA MEDICA, CHINESE ACADEMY OF …, priority 2013, dated 2019).
Where two headings read alike, the source gives them in different places.

Target: CCR5 (Homo sapiens (Human), UniProt P51681)
Assay: Calcium flux inhibition experiment
Type: cell-based
Details: for calcium influx inhibition effect in words, versus positive control compounds: conclusion from Table 1
Description: Experiment apparatus: FlexStation II
Experiment materials: HEK293/CCR5-Gα16 cell line, Fluo-4calcium dye (fluorescent-4 calcium ion dye) and FlexStation instrument.
Experiment theory: Activation of the receptor can cause the activation of Gα16 protein, thereby activating phospholipase C (PLC) to generate IP3 and DAG by establishing CCR5 and Ga16 co-transfected cell line. IP3 can bind to IP3 receptors on the endoplasmic reticulum and mitochondria in a cell, which can cause the release of intracellular calcium. Thus, determination of changes in intracellular calcium can be used as a method to detect CCR5 activation state. Fluo-4/AM is a fluorescent probe indicator for calcium used to measure calcium ion. As a non-polar lipid-soluble compound, after it enters into cells, AM group is dissociated to release Fluo-4 under the effect of cell lipolysis enzyme. Fluo-4 is a polar molecule and not easy to go through the lipid bilayer membrane, therefore it can stay within the cells for a long time. Ultimately, the level of activated Ga protein can be reflected by measuring the excited fluorescence intensity. If the screened compound can activate CCR5, it can greatly increase the calcium flux reaction; on the contrary, if the screened compound can antagonize CCR5, it can greatly reduce calcium flux reaction.
1. HEK293 cells which can stably express CCR5 were inoculated in a 96-well plate and incubated overnight.
2. The medium in each well into which cells were innoculated was removed and 40 μl/well of freshly prepared dye was added. The plate was placed in a 37° C. incubator and incubated for 40 minutes at constant temperature.
3. The medicament to be determined was diluted with calcium buffer to eight concentration gradients, which is 1×10^−4 M, 1×10^−5 M, 1×10^−6 M, 1×10^−7 M, 1×10^−8 M, 1×10^−9 M, 1×10^−10 M, and 1×10^−11 M, respectively, and homogeneously mixed.
4. The dye was removed. Freshly prepared calcium buffer was used to wash for one time, 50 μl of calcium buffer was added.
5. FlexStation II was used for detection. 25 μl of calcium buffer containing the medicament to be determined was added automatically from the 15th second.

[1] = HEK293/CCR5-Gα16 cell line, calcium flux, read-out: CCR5 IC50

Chain of CCR5 (P51681 whole entry): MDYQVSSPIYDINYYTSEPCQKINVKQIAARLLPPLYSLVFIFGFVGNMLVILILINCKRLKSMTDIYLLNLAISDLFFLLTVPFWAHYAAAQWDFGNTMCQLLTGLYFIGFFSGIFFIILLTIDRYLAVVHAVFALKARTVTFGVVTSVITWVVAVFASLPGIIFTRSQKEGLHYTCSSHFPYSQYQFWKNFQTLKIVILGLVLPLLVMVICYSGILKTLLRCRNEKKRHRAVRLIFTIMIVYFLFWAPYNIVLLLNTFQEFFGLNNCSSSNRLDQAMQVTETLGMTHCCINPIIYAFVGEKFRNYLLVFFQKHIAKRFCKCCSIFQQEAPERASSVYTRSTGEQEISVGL

Compound	IC50 [1] [nM]	calcium influx inhibition effect in words, versus positive control compounds	IC50 [nM]
COc1ccc([C@H](CCN2C3CCC2CC(n2c(C)nnc2C(C)C)C3)NC(=O)C2CCN(S(C)(=O)=O)CC2)s1 (stereo partly drawn) [Compound 148, N-[(1S)-3-[exo-3-(3-isopropyl-5-methyl-4H-1,2,4-triazol-4-yl)-8-azabicyclo[3.2.1]octane-8-yl]-1-(5-methoxythiophen-2-yl)propyl]-1-methylsulfonylpiperidine-4-carboxamide]	3.42	better than the positive control compounds	
Cc1nnc(C(C)C)n1C1CC2CCC(C1)N2CC[C@H](NC(=O)C1CCN(S(C)(=O)=O)CC1)c1ccc(C#N)s1 (stereo partly drawn) [Compound 149, N-[(1S)-3-[exo-3-(3-isopropyl-5-methyl-4H-1,2,4-triazol-4-yl)-8-azabicyclo[3.2.1]octane-8-yl]-1-(5-cyanothiophen-2-yl)propyl]-1-methylsulfonylpiperidine-4-carboxamide]		comparable to the positive control compounds	7.89
Cc1nnc(C(C)C)n1C1CC2CCC(C1)N2CC[C@H](NC(=O)C1CCN(S(C)(=O)=O)CC1)c1ccc(Cl)s1 (stereo partly drawn) [Compound 150, N-[(1S)-3-[exo-3-(3-isopropyl-5-methyl-4H-1,2,4-triazol-4-yl)-8-azabicyclo[3.2.1]octane-8-yl]-1-(5-chlorothiophen-2-yl)propyl]-1-methylsulfonylpiperidine-4-carboxamide]	2.22	better than the positive control compounds	
Cc1nnc(C(C)C)n1C1CC2CCC(C1)N2CC[C@H](NC(=O)C1CCN(S(C)(=O)=O)CC1)c1ccc(F)s1 (stereo partly drawn) [Compound 151, N-[(1S)-3-[exo-3-(3-isopropyl-5-methyl-4H-1,2,4-triazol-4-yl)-8-azabicyclo[3.2.1]octane-8-yl]-1-(5-fluorothiophen-2-yl)propyl]-1-methylsulfonylpiperidine-4-carboxamide]	3.45	better than the positive control compounds	
Cc1nnc(C(C)C)n1C1CC2CCC(C1)N2CC[C@H](NC(=O)Cn1ncnn1)c1cccs1 (stereo partly drawn) [Compound 152, N-[(1S)-3-[exo-3-(3-isopropyl-5-methyl-4H-1,2,4-triazol-4-yl)-8-azabicyclo[3.2.1]octane-8-yl]-1-(thiophen-2-yl)propyl]-2-(2H-tetrazol-2-yl)acetamide]	7.98	comparable to the positive control compounds	
Cc1ccc([C@H](CCN2C3CCC2CC(n2c(C)nnc2C(C)C)C3)NC(=O)Cn2ncnn2)s1 (stereo partly drawn) [Compound 153, N-[(1S)-3-[exo-3-(3-isopropyl-5-methyl-4H-1,2,4-triazol-4-yl)-8-azabicyclo[3.2.1]octane-8-yl]-1-(5-methylthiophen-2-yl)propyl]-2-(2H-tetrazol-2-yl)acetamide]	13.4		
COc1ccc([C@H](CCN2C3CCC2CC(n2c(C)nnc2C(C)C)C3)NC(=O)Cn2ncnn2)s1 (stereo partly shown) [Compound 154]			23.1
Cc1nnc(C(C)C)n1C1CC2CCC(C1)N2CC[C@H](NC(=O)Cn1ncnn1)c1ccc(C#N)s1 (stereo partly drawn) [Compound 155, N-[(1S)-3-[exo-3-(3-isopropyl-5-methyl-4H-1,2,4-triazol-4-yl)-8-azabicyclo[3.2.1]octane-8-yl]-1-(5-cyanothiophen-2-yl)propyl]-2-(2H-tetrazol-2-yl)acetamide]		comparable to the positive control compounds	8.23
Cc1nnc(C(C)C)n1C1CC2CCC(C1)N2CC[C@H](NC(=O)Cn1ncnn1)c1ccc(Cl)s1 (stereo partly drawn) [Compound 156, N-[(1S)-3-[exo-3-(3-isopropyl-5-methyl-4H-1,2,4-triazol-4-yl)-8-azabicyclo[3.2.1]octane-8-yl]-1-(5-chlorothiophen-2-yl)propyl]-2-(2H-tetrazol-2-yl)acetamide]	9.85	comparable to the positive control compounds	
